From US20120269739A1, “COMPOSITION, USE, AND PRESERVATION METHOD” (L'OREAL, priority 2009, published 2012)

What was measured:
Assay type in all cases: cell-based
[1] = system: Escherichia coli (Ec) ATCC 8739; experiment: Challenge Test (artificial contamination) of cosmetic formula; details: 22° C., chlorhexidine digluconate 0.3%, gingerone 2%
From the text: (§1) 5 pure microorganism cultures are used.

[2] = system: Candida albicans (Ca) ATCC 10231; experiment: as above; details: 22° C., chlorhexidine digluconate 0.3%, gingerone 2%; for Log reduction number after 7 days of contact, relative to the control, Candida albicans: Amt weight %: sodium benzoate 0.6%
From the text: as §1

[3] = system: Enterococcus faecalis (Ef) ATCC 33186; experiment: as above; details: 22° C., chlorhexidine digluconate 0.3%, gingerone 2%
From the text: as §1

[4] = system: Aspergillus niger (An) ATCC 6275; experiment: as above; details: 22° C., chlorhexidine digluconate 0.3%, gingerone 2%
From the text: as §1

[5] = system: Staphylococcus aureus (ATCC 6538); experiment: Action kinetics in broth; details: TS broth pH 5.2±0.3, 35° C., gingerone 2%, sodium benzoate 3.3%, chlorhexidine digluconate 2.2%
Description: (§2) The object of this example is to distinguish a compound according to the invention (gingerone) from the preserving agents conventionally used for protecting cosmetic formulations against microbial contamination, as regards the action kinetics.
(§3) The solutions are prepared in Trypto-casein-soya (TS) broth for the bacteria and in Sabouraud broth for the yeast. These solutions are adjusted to pH 5.2±0.3.
(§4) For each microbial solution, a growth control consisting of the appropriate culture medium alone is prepared.
(§5) The solutions in TS broth (36 ml) are inoculated separately with each of the bacteria (4 ml of microbial suspension) to a final content of 10^6 cfu/ml of mixture.
(§6) The inoculated samples are then placed in an incubator-agitator at 35° C.±2° C. Samples are taken after 6 hours, 24 hours, 48 hours, 72 hours and 7 days. Decimal dilutions are then prepared in Eugon LT100 broth. These dilutions are left for 30 minutes±15 minutes at 25° C. in order to neutralize the preserving agents, and are then double-seeded on the surface of Petri dishes containing Eugon LT100 agar.
(§7) The Petri dishes are then incubated in an oven at 35° C.±2° C. for a variable time depending on the strain concerned: • 48 hours; S. aureus; • 5 days: E. faecalis and C. albicans.
(§8) The results are expressed for each solution, each strain and each contact time as the number of cfu/ml of stock solution.

[6] = system: Enterococcus faecalis (ATCC 33186); experiment: Action kinetics in broth; details: TS broth pH 5.2±0.3, 35° C., gingerone 2%, sodium benzoate 3.3%, chlorhexidine digluconate 2.2%
Description: as §2, §3, §4, §5, §6, §7, §8

[7] = system: Candida albicans (ATCC 10231); experiment: Action kinetics in broth; details: Sabouraud broth pH 5.2±0.3, 35° C., gingerone 2%, sodium benzoate 3.3%, chlorhexidine digluconate 2.2%
Description: as §2, §3, §4
The solutions in Sabouraud broth (36 ml) are inoculated with the yeast (4 ml of suspension) to a final content of 10^6 cfu/ml.
as §6, §7, §8

[8] = 1st formula O/W emulsion, Amt weight %: phenoxyethanol 1%, sodium benzoate 0.6%
[9] = 2nd formula lotion (pH 7 ± 0.2), Amt weight %: sodium benzoate 0.6%, phenoxyethanol 1%
[10] = 3rd formula O/W emulsion, Amt weight %: sodium benzoate 0.6%

O=C([O-])c1ccccc1.[Na+] [Sodium benzoate]
Log reduction number after 7 days of contact, relative to the control, E. coli [1, 8]: 0.3 Log | Log reduction number after 7 days of contact, relative to the control, E. coli [1, 9]: 0.7 Log | Log reduction number after 7 days of contact, relative to the control, E. coli [1, 10]: >4 Log | Log reduction number after 7 days of contact, relative to the control, C. albicans [2, 8]: 0 Log | Log reduction number after 7 days of contact, relative to the control, Candida albicans ([2]; 2nd formula lotion (pH 7 ± 0.2), phenoxyethanol 1%): <0.5 Log | Log reduction number after 7 days of contact, relative to the control, Candida albicans ([2]; 3rd formula O/W emulsion): >4 Log | Log reduction number after 7 days of contact, relative to the control, E. faecalis [3, 8]: 0.6 Log | Log reduction number after 7 days of contact, relative to the control, E. faecalis [3, 9]: 1.4 Log | Log reduction number after 7 days of contact, relative to the control, E. faecalis [3, 10]: >4 Log | Log reduction number after 7 days of contact, relative to the control, A. niger [4, 8]: 0.5 Log | Log reduction number after 7 days of contact, relative to the control, A. niger [4, 9]: <0.5 Log | Log reduction number after 7 days of contact, relative to the control, A. niger [4, 10]: 3 Log | Number of cfu counted after strain/solution contact time, Staphylococcus aureus ([5]; contact time 0 hours, first series): 1.7 × 10^6 cfu/ml | Number of cfu counted after strain/solution contact time, Staphylococcus aureus ([5]; contact time 0 hours, second series of Table 1): 2.5 × 10^6 cfu/ml | Number of cfu counted after strain/solution contact time, Staphylococcus aureus ([5]; contact time 6 hours, first series): <10 cfu/ml | Number of cfu counted after strain/solution contact time, Staphylococcus aureus ([5]; contact time 6 hours, second series of Table 1): <10 cfu/ml | Number of cfu counted after strain/solution contact time, Staphylococcus aureus ([5]; contact time 24 hours, first series): <10 cfu/ml | Number of cfu counted after strain/solution contact time, Staphylococcus aureus ([5]; contact time 24 hours, second series of Table 1): <10 cfu/ml | Number of cfu counted after strain/solution contact time, Staphylococcus aureus ([5]; contact time 48 hours, first series): <10 cfu/ml | Number of cfu counted after strain/solution contact time, Staphylococcus aureus ([5]; contact time 48 hours, second series of Table 1): <10 cfu/ml | Number of cfu counted after strain/solution contact time, Staphylococcus aureus ([5]; contact time 72 hours, first series): <10 cfu/ml | Number of cfu counted after strain/solution contact time, Staphylococcus aureus ([5]; contact time 72 hours, second series of Table 1): <10 cfu/ml | Number of cfu counted after strain/solution contact time, Staphylococcus aureus ([5]; contact time 168 hours, first series): <10 cfu/ml | Number of cfu counted after strain/solution contact time, Staphylococcus aureus ([5]; contact time 168 hours, second series of Table 1): <10 cfu/ml | Number of cfu counted after strain/solution contact time, Enterococcus faecalis ([6]; contact time 0 hours): 2.5 × 10^6 cfu/ml | Number of cfu counted after strain/solution contact time, Enterococcus faecalis ([6]; contact time 6 hours): 4.4 × 10^5 cfu/ml | Number of cfu counted after strain/solution contact time, Enterococcus faecalis ([6]; contact time 24 hours): 7.0 × 10^2 cfu/ml | Number of cfu counted after strain/solution contact time, Enterococcus faecalis ([6]; contact time 48 hours): <10 cfu/ml | Number of cfu counted after strain/solution contact time, Enterococcus faecalis ([6]; contact time 72 hours): <10 cfu/ml | Number of cfu counted after strain/solution contact time, Enterococcus faecalis ([6]; contact time 168 hours): <10 cfu/ml | Number of cfu counted after strain/solution contact time, Candida albicans ([7]; contact time 0 hours): 2.9 × 10^6 cfu/ml | Number of cfu counted after strain/solution contact time, Candida albicans ([7]; contact time 6 hours): <10 cfu/ml | Number of cfu counted after strain/solution contact time, Candida albicans ([7]; contact time 24 hours): <10 cfu/ml | Number of cfu counted after strain/solution contact time, Candida albicans ([7]; contact time 48 hours): <10 cfu/ml | Number of cfu counted after strain/solution contact time, Candida albicans ([7]; contact time 72 hours): <10 cfu/ml | Number of cfu counted after strain/solution contact time, Candida albicans ([7]; contact time 168 hours): <10 cfu/ml
